Source: the supplement of paper PMC10307832

How the values were obtained:
Assay in all cases: relative viability (nuclei count vs DMSO), 5 days (fraction); higher = more cells survive
[1] = compound: CCOC1=CC=CC=C1N=NC2=C(NN(C2=O)C3=NC(=CS3)C4=CC=CC=C4)C [BAM7]
Procedure, shortened: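 On vehicle-anchored 1536-well plates, lung cancer cell lines held overnight at 37 °C were pinned with five library-drug doses (not always all listed) spaced by √10. With no medium change over 5 days, they were then fixed, permeabilised and Hoechst-stained in one step and imaged at 4×. MetaXpress counted nuclei, and viability is the median across plates of treated-well over vehicle-well nuclei. Acceptance needed control CV below 25% and at least one doubling.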

[2] = compound: CCOC1=CC=CC=C1N=NC2=C(NN(C2=O)C3=NC(=CS3)C4=CC=CC=C4)C [BAM7] + CC(C)C[C@H](NC(=O)[C@H](Cc1ccccc1)NC(=O)c1cnccn1)B(O)O [Bortezomib] (partner 0.002 µM)
Procedure, shortened: (§1)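 A single step with final 0.05% Triton X-100, 1% formaldehyde and 1 ug/ml Hoechst fixed the cells and stained nuclei 5 days after treatment. Lung cancer cell lines in 1536-well plates had been treated by pin tool the day after seeding with one drug alone or a fixed anchor-drug dose plus five library-drug doses (not always all listed) in √10 steps, and nuclei were counted on 4× images. Relative viability is the ratio of nuclei in treated wells to nuclei in vehicle wells, taken as the median of duplicate plates.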

[3] = compound: CCOC1=CC=CC=C1N=NC2=C(NN(C2=O)C3=NC(=CS3)C4=CC=CC=C4)C [BAM7] + Nc1nc2[nH]cc(CCc3ccc(C(=O)N[C@@H](CCC(=O)O)C(=O)O)cc3)c2c(=O)[nH]1 [Pemetrexed] (partner 0.2 µM)
Procedure, shortened: as §1

[4] = compound: CCn1c(-c2nonc2N)nc2c(C#CC(C)(C)O)ncc(OC[C@H]3CCCNC3)c21 + N=C(N)NC(=N)NCCc1ccccc1 [Phenformin] (partner 250 µM)
Procedure, shortened: as §1

EKVX
relative viability ([1]; 0.5 µM): 1.05 | relative viability ([1]; 5 µM): 0.982 | relative viability ([1]; 15.81 µM): 0.843 | relative viability ([1]; 50 µM): 0.86 | relative viability ([2]; first compound 0.5 µM): 1.2 | relative viability ([2]; first compound 5 µM): 1.15 | relative viability ([2]; first compound 15.81 µM): 0.758 | relative viability ([2]; first compound 50 µM): 0.986 | relative viability ([3]; first compound 0.5 µM): 0.425 | relative viability ([3]; first compound 5 µM): 0.409 | relative viability ([3]; first compound 15.81 µM): 0.349 | relative viability ([3]; first compound 50 µM): 0.377 | relative viability ([4]; first compound 0.01 µM): 0.232 | relative viability ([4]; first compound 0.03162 µM): 0.231 | relative viability ([4]; first compound 0.1 µM): 0.217 | relative viability ([4]; first compound 0.3162 µM): 0.217 | relative viability ([4]; first compound 1 µM): 0.195

EMC-BAC-2
relative viability ([1]; 0.5 µM): 1.03 | relative viability ([1]; 5 µM): 1.08 | relative viability ([1]; 15.81 µM): 1.22 | relative viability ([1]; 50 µM): 1.02 | relative viability ([2]; first compound 0.5 µM): 1.04 | relative viability ([2]; first compound 5 µM): 1.16 | relative viability ([2]; first compound 15.81 µM): 1.11 | relative viability ([2]; first compound 50 µM): 1.17 | relative viability ([3]; first compound 0.5 µM): 0.439 | relative viability ([3]; first compound 5 µM): 0.458 | relative viability ([3]; first compound 15.81 µM): 0.474 | relative viability ([3]; first compound 50 µM): 0.452 | relative viability ([4]; first compound 0.01 µM): 0.487 | relative viability ([4]; first compound 0.03162 µM): 0.491 | relative viability ([4]; first compound 0.1 µM): 0.578 | relative viability ([4]; first compound 0.3162 µM): 0.502 | relative viability ([4]; first compound 1 µM): 0.52

EPLC-272H
relative viability ([1]; 0.5 µM): 0.989 | relative viability ([1]; 5 µM): 0.95 | relative viability ([1]; 15.81 µM): 0.95 | relative viability ([1]; 50 µM): 0.995 | relative viability ([2]; first compound 0.5 µM): 0.893 | relative viability ([2]; first compound 5 µM): 0.969 | relative viability ([2]; first compound 15.81 µM): 0.827 | relative viability ([2]; first compound 50 µM): 0.942 | relative viability ([3]; first compound 0.5 µM): 0.328 | relative viability ([3]; first compound 5 µM): 0.371 | relative viability ([3]; first compound 15.81 µM): 0.401 | relative viability ([3]; first compound 50 µM): 0.322 | relative viability ([4]; first compound 0.01 µM): 0.275 | relative viability ([4]; first compound 0.03162 µM): 0.333 | relative viability ([4]; first compound 0.1 µM): 0.32 | relative viability ([4]; first compound 0.3162 µM): 0.291 | relative viability ([4]; first compound 1 µM): 0.255

H3255
relative viability ([1]; 0.5 µM): 0.99 | relative viability ([1]; 5 µM): 1.02 | relative viability ([1]; 15.81 µM): 0.963 | relative viability ([1]; 50 µM): 0.995 | relative viability ([2]; first compound 0.5 µM): 0.674 | relative viability ([2]; first compound 5 µM): 0.798 | relative viability ([2]; first compound 15.81 µM): 0.7 | relative viability ([2]; first compound 50 µM): 0.624 | relative viability ([3]; first compound 0.5 µM): 0.578 | relative viability ([3]; first compound 5 µM): 0.543 | relative viability ([3]; first compound 15.81 µM): 0.548 | relative viability ([3]; first compound 50 µM): 0.545 | relative viability ([4]; first compound 0.01 µM): 0.403 | relative viability ([4]; first compound 0.03162 µM): 0.406 | relative viability ([4]; first compound 0.1 µM): 0.342 | relative viability ([4]; first compound 0.3162 µM): 0.338 | relative viability ([4]; first compound 1 µM): 0.329

HARA
relative viability ([1]; 0.5 µM): 0.942 | relative viability ([1]; 5 µM): 1.01 | relative viability ([1]; 15.81 µM): 0.836 | relative viability ([1]; 50 µM): 0.986 | relative viability ([2]; first compound 0.5 µM): 1.14 | relative viability ([2]; first compound 5 µM): 1.26 | relative viability ([2]; first compound 15.81 µM): 1.09 | relative viability ([2]; first compound 50 µM): 1.14 | relative viability ([3]; first compound 0.5 µM): 0.228 | relative viability ([3]; first compound 5 µM): 0.244 | relative viability ([3]; first compound 15.81 µM): 0.222 | relative viability ([3]; first compound 50 µM): 0.292 | relative viability ([4]; first compound 0.01 µM): 0.361 | relative viability ([4]; first compound 0.03162 µM): 0.445 | relative viability ([4]; first compound 0.1 µM): 0.426 | relative viability ([4]; first compound 0.3162 µM): 0.451 | relative viability ([4]; first compound 1 µM): 0.495

HCC-15
relative viability ([1]; 0.5 µM): 1.01 | relative viability ([1]; 5 µM): 1.01 | relative viability ([1]; 15.81 µM): 0.97 | relative viability ([1]; 50 µM): 0.927 | relative viability ([2]; first compound 0.5 µM): 1.02 | relative viability ([2]; first compound 5 µM): 1.06 | relative viability ([2]; first compound 15.81 µM): 1 | relative viability ([2]; first compound 50 µM): 0.934 | relative viability ([3]; first compound 0.5 µM): 0.225 | relative viability ([3]; first compound 5 µM): 0.216 | relative viability ([3]; first compound 15.81 µM): 0.22 | relative viability ([3]; first compound 50 µM): 0.227 | relative viability ([4]; first compound 0.01 µM): 0.439 | relative viability ([4]; first compound 0.03162 µM): 0.502 | relative viability ([4]; first compound 0.1 µM): 0.456 | relative viability ([4]; first compound 0.3162 µM): 0.395 | relative viability ([4]; first compound 1 µM): 0.404

HCC-44
relative viability ([1]; 0.5 µM): 0.923 | relative viability ([1]; 5 µM): 0.997 | relative viability ([1]; 15.81 µM): 1.02 | relative viability ([1]; 50 µM): 1.01 | relative viability ([2]; first compound 0.5 µM): 1.01 | relative viability ([2]; first compound 5 µM): 0.921 | relative viability ([2]; first compound 15.81 µM): 0.879 | relative viability ([2]; first compound 50 µM): 0.838 | relative viability ([3]; first compound 0.5 µM): 0.648 | relative viability ([3]; first compound 5 µM): 0.642 | relative viability ([3]; first compound 15.81 µM): 0.635 | relative viability ([3]; first compound 50 µM): 0.63 | relative viability ([4]; first compound 0.01 µM): 0.19 | relative viability ([4]; first compound 0.03162 µM): 0.183 | relative viability ([4]; first compound 0.1 µM): 0.194 | relative viability ([4]; first compound 0.3162 µM): 0.184 | relative viability ([4]; first compound 1 µM): 0.189

HCC-78
relative viability ([1]; 0.5 µM): 1.06 | relative viability ([1]; 5 µM): 0.879 | relative viability ([1]; 15.81 µM): 1.07 | relative viability ([1]; 50 µM): 1.04 | relative viability ([2]; first compound 0.5 µM): 0.586 | relative viability ([2]; first compound 5 µM): 0.63 | relative viability ([2]; first compound 15.81 µM): 0.419 | relative viability ([2]; first compound 50 µM): 0.608 | relative viability ([3]; first compound 0.5 µM): 0.929 | relative viability ([3]; first compound 5 µM): 0.913 | relative viability ([3]; first compound 15.81 µM): 0.963 | relative viability ([3]; first compound 50 µM): 0.863 | relative viability ([4]; first compound 0.01 µM): 0.655 | relative viability ([4]; first compound 0.03162 µM): 0.755 | relative viability ([4]; first compound 0.1 µM): 0.711 | relative viability ([4]; first compound 0.3162 µM): 0.588 | relative viability ([4]; first compound 1 µM): 0.67

HCC-366
relative viability ([1]; 0.5 µM): 1.04 | relative viability ([1]; 5 µM): 1.04 | relative viability ([1]; 15.81 µM): 1.03 | relative viability ([1]; 50 µM): 1.02 | relative viability ([2]; first compound 0.5 µM): 1.09 | relative viability ([2]; first compound 5 µM): 1.11 | relative viability ([2]; first compound 15.81 µM): 1.08 | relative viability ([2]; first compound 50 µM): 1.08 | relative viability ([3]; first compound 0.5 µM): 0.107 | relative viability ([3]; first compound 5 µM): 0.117 | relative viability ([3]; first compound 15.81 µM): 0.125 | relative viability ([3]; first compound 50 µM): 0.115 | relative viability ([4]; first compound 0.01 µM): 0.573 | relative viability ([4]; first compound 0.03162 µM): 0.606 | relative viability ([4]; first compound 0.1 µM): 0.637 | relative viability ([4]; first compound 0.3162 µM): 0.62 | relative viability ([4]; first compound 1 µM): 0.617
